According to patent US7186879B2, “Screening systems and methods for identifying modulators of xenobiotic metabolism” (Baylor College of Medicine, priority 2001, dated 2007):
“Also recorded” adds a separate entry of the source. Values belong to the compound of their own block, whether it stands above or below them.

Legend:
murine CAR receptor [1] = target: T1, murine CAR receptor (Mus musculus, UniProt O35627); assay: Ligand activity on murine CAR receptor
T1 sequence (O35627 1-358 M138L): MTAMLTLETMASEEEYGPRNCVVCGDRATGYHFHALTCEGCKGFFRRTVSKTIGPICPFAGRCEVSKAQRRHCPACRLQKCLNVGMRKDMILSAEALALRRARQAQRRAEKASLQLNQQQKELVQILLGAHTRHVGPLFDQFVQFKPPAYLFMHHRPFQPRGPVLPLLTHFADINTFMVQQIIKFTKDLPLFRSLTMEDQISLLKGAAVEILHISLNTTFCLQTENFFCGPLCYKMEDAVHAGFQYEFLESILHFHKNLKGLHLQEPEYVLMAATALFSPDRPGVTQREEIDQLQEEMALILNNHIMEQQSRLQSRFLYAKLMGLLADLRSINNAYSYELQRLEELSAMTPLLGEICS

[2] = tested on: wild-type and CAR null mice; settings: mouse, in vivo
From the text: To rule out the possibility that the CAR knockout animals are somehow resistant to NAPQI, the metabolite was directly injected into the livers of both wild-type and CAR null mice, and serum ALT levels were increased 5 to 10 fold in both. Thus, that both increased NAPQI production and GSH depletion may contribute to xenobiotic induced APAP toxicity.

[3] = tested on: wild-type and CAR knockout mice; assay: APAP toxicity after pretreatment with inducers (serum ALT, histology); type: in vivo, mouse; settings: mouse, in vivo
Procedure: (§1) CAR (+/+) or CAR (−/−) animals pretreated with phenobarbital (PB), TCPOBOP (TC), or vehicle alone were administered a 250 mg/kg dose of APAP by intraperitoneal injection (n=5–7 per treatment group) (FIG. 11A). Serum was collected and alanine aminotransferase (ALT) levels were measured after 24 hours. Liver sections from different treatments were examined by histological staining (FIG. 11B). Liver samples from all treated animals were analyzed but only representative histology is presented. […] CAR (+/+) or CAR (−/−) animals were pretreated with PB, TCPOBOP (TC), or vehicle alone for three days (FIG. 11C). […] Liver samples treated as indicated were collected two hours after APAP and GSH levels were measured (n=5–7) (FIG. 11D).
The effect of PB and the potent CAR agonist TCPOBOP on APAP toxicity was examined in wild-type and CAR knockout mice. Both strains of mice were treated with inducers or the vehicle control, followed by 250 mg/kg APAP. For these studies, mice were kept in a pathogen-free animal facility under standard 12 hour light/12 hour dark cycle and fed standard rodent chow and water ad libitum. At least five mice between 8 and 10 weeks old were used in each treatment group. For 3-day PB (100 mg/kg) treatment, mice were injected intraperitoneally three times, one injection per day. TCPOBOP (3 mg/kg) and/or APAP were injected intraperitoneally. Phenobarbital and TCPOBOP were suspended or dissolved in corn oil, and APAP was dissolved in basic PBS (pH=11). PB and APAP were purchased from Sigma (St Louis, Mo.); TCPOBOP was a gift from Dr. Stephen Safe.
For histologic examination of the treated mice, the left lobe of the livers was removed and immediately fixed in 4% formaldehyde-PBS solution, embedded in paraffin, sectioned at 5 μm, and stained with hematoxylin and eosin. Samples were examined under a light microscope. For RNA studies, total RNA was extracted using TRIzol Reagent (Invitrogen Life Technologies, Carlsbad, Calif.) according to the manufacture's instruction. Equivalent amount of RNA from 3–5 mice were pooled and 10 μg of each sample was subjected to northern blot analysis. […] Preparation of probes for CYP2B10 and CYP3A11 were described as previously (Wei et al., Nature 407:920–923, 2000 and Zelko et al., Mol Cell Biol 21:2838–2846, 2001). PCR primers used were: CYP1A2: 5′-[…]-3′ (SEQ ID NO: 19) and 5′-[…]-3′ (SEQ ID NO: 20), CYP2E1: 5′-[…]-3′ (SEQ ID NO: 21) and 5′-[…]-3′ (SEQ ID NO: 22), GSTPi: 5′-[…]-3′ (SEQ ID NO: 23) and 5′-[…]-3′ (SEQ ID NO: 24). Hepatic non-protein thiol was measured as an indication of hepatic GSH content. Mice were sacrificed two hours after intraperitoneal injection with APAP. Livers were removed and immediately homogenized in four volumes of 5% trichloroacetic acid and then centrifuged at 1,600×g for 15 minutes. Supernatant (0.5 ml) was mixed with 1.5 ml 0.1 mM Ellman's reagent [5,5′-dithio-bis(2-nitrobenzoic acid)] (Sigma, St Louis, Mo.) and allowed to stand at room temperature for 15 minutes. Absorbance was read at 412 nm using GSH solutions as quantitative standards.

PXR = target: T2, PXR (Mus musculus, UniProt O54915); settings: cited from earlier work
T2 sequence (O54915 1-431): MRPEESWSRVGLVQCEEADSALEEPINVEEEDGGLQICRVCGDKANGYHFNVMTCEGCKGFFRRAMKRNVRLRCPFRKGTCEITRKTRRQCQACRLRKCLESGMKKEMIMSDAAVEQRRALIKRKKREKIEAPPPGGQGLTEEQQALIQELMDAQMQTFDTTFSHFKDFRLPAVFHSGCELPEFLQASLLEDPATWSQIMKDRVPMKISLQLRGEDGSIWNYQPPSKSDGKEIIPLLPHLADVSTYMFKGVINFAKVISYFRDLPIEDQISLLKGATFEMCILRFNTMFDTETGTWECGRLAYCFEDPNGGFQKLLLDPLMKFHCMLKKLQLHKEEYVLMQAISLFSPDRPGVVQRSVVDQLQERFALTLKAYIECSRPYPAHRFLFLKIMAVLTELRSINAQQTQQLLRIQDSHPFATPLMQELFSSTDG

murine CAR receptor [4] = target: T3, murine CAR receptor (Mus musculus, UniProt O35627, M138L); settings: cited from earlier work
T3 sequence (O35627 1-358 M138L): T1 sequence (O35627 1-358 M138L)

CAR [5] = target: T4, CAR (Mus musculus, UniProt O35627); assay: Hepatoprotection after APAP (serum ALT, histology)
T4 sequence (O35627 1-358 M138L): T1 sequence (O35627 1-358 M138L)
Procedure: (§2) Wild-type mice (n=3 per group) were administered a 500 mg/kg dose of APAP by intraperitoneal injection.
(§3) For comparison, N-acetylcysteine (1 g/kg, purchased from Sigma and dissolved in PBS) was administered intraperitoneally to other mice.

CAR [6] = assay: Hepatoprotection after APAP (serum ALT, histology)
Procedure: as §2, §3

CAR [7] = target: T5, CAR (Mus musculus, UniProt O35627, M138L); assay: Hepatoprotection after APAP (serum ALT, histology); settings: for protective effect, androstanol compared with N-acetylcysteine: wild-type mice, one and three hours after APAP 500 mg/kg, androstanol 100 mg/kg, N-acetylcysteine 1 g/kg
T5 sequence (O35627 1-358 M138L): T1 sequence (O35627 1-358 M138L)
Procedure: as §2, §3

human CAR [8] = target: T6, human CAR (Homo sapiens, UniProt Q14994); settings: cited from earlier work
T6 sequence (Q14994 1-348 isoform Q14994-2): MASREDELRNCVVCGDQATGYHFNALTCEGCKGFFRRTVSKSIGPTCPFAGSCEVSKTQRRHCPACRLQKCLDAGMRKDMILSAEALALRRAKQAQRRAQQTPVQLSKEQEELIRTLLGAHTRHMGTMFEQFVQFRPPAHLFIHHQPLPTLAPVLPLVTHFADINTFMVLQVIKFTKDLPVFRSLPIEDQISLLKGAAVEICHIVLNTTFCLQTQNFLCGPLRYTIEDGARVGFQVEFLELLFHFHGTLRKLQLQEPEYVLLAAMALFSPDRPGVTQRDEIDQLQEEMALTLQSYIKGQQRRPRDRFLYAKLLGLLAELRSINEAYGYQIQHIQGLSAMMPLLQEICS

human CAR [9] = target: T6, human CAR; assay: Northern blot of gene induction in CAR humanized mice; settings: 500 mg/kg
Procedure: CAR humanized mice (n=3) were treated with 500 mg/kg APAP or vehicle. After two hours, total liver RNA was prepared and subjected to Northern blot analysis with indicated probes.

[10] = tested on: CYP2E1, CYP1A2, CYP3A11, GSTPi; assay: Northern blot of APAP metabolizing genes in liver of wild-type and CAR null mice; settings: mouse, in vivo, 500 mg/kg, 2 h
Procedure: as §1, with “Serum was collected and alanine aminotransferase (ALT) levels were measured after 24 hours.” left out
CAR (+/+) and CAR (−/−) animals were given 250 mg/kg, 500 mg/kg, or 800 mg/kg doses of APAP, respectively (FIG. 12A). […] Total liver RNA was prepared from 500 mg/kg APAP treated CAR (+/+) and CAR (−/−) livers at 0 and 2 hours as indicated. […] The same blot was stripped and re-probed with β-actin as loading control.
For histologic examination of the treated mice, the left lobe of the livers was removed and immediately fixed in 4% formaldehyde-PBS solution, embedded in paraffin, sectioned at 5 μm, and stained with hematoxylin and eosin. Samples were examined under a light microscope. For RNA studies, total RNA was extracted using TRIzol Reagent (Invitrogen Life Technologies, Carlsbad, Calif.) according to the manufacture's instruction. Equivalent amount of RNA from 3–5 mice were pooled and 10 μg of each sample was subjected to northern blot analysis. […] Hepatic non-protein thiol was measured as an indication of hepatic GSH content. Mice were sacrificed two hours after intraperitoneal injection with APAP. […] Supernatant (0.5 ml) was mixed with 1.5 ml 0.1 mM Ellman's reagent [5,5′-dithio-bis(2-nitrobenzoic acid)] […] Absorbance was read at 412 nm using GSH solutions as quantitative standards.

[11] = CAR humanized mice, two hours, densitometry

SMILES: CC(=O)N=C1C=CC(=O)C=C1 [NAPQI, N-acetyl-p-benzoquinone imine]
CAR agonist function (murine CAR receptor [1]): neither APAP nor NAPQI functions as a CAR agonist
increase of serum ALT levels [2]: 5-10 fold

SMILES: CC(=O)[C@H]1[C@H](C#N)C[C@H]2[C@@H]3CC=C4C[C@@H](O)CC[C@]4(C)[C@H]3CC[C@@]21C [PCN, 5-pregnen-3b-ol-20-one-16a-carbonitrile]
sensitivity to APAP [3]: increase in sensitivity to APAP comparable to that observed with TCPOBOP pretreatment
PXR agonism (PXR): strong PXR agonist

SMILES: C[C@@]12CCC[C@H]1[C@@H]1CC[C@H]3C[C@H](O)CC[C@]3(C)[C@H]1CC2 [androstanol, 5α-androstan-3α-ol]
activity on murine CAR receptor (murine CAR receptor [4]): can be blocked
APAP toxicity after pretreatment (CAR [5]; wild-type mice): decreases APAP toxicity
serum ALT, treatment three hours after APAP (CAR [5]; wild-type mice relative to untreated wild-type): somewhat lower serum ALT levels
hepatotoxicity, treatment one hour after APAP (CAR [5]; wild-type mice, APAP 500 mg/kg, androstanol 100 mg/kg i.p.): blocked hepatotoxicity; also recorded: nearly complete absence of hepatotoxicity
hepatotoxicity, treatment after APAP (CAR [6]; CAR knockout animals, APAP 500 mg/kg, androstanol 100 mg/kg i.p.): did not block toxicity
serum ALT, androstanol and APAP versus APAP alone (CAR [6]; CAR −/− animals): somewhat higher
ALT levels, CAR (+/+) versus CAR (−/−) animals (CAR [6]; androstanol at one and three hours after APAP 500 mg/kg): significantly lower ALT levels
protective effect, treatment five hours after APAP (CAR [7]; relative to wild-type control): no protective effect
protective effect, androstanol compared with N-acetylcysteine (CAR [7]): very similar
activity on human CAR receptor (human CAR [8]): not human CAR

activation of human CAR (human CAR [9]; CAR humanized mice): human CAR is activated by APAP
induction of CYP1A2 mRNA (human CAR [9]; [11]): 1.8 fold
induction of CYP3A11 mRNA (human CAR [9]; [11]): 2.4 fold
induction of GSTPi mRNA (human CAR [9]; [11]): 1.8 fold
expression of CYP1A2, CYP3A11 and GSTPi (human CAR [9]; humanized mice): increased expression
induction of CYP1A2 mRNA [10]: approximately 2.8 fold
induction of CYP3A11 mRNA [10]: ~4.4 fold
induction of GSTPi mRNA [10]: ~3.9 fold
SMILES: CC(=O)Nc1ccc(O)cc1 [APAP, N-acetyl-p-aminophenol]
CAR agonist function (murine CAR receptor [1]): neither APAP nor NAPQI functions as a CAR agonist

SMILES: CC(=O)N[C@@H](CS)C(=O)O [N-acetylcysteine]
protective effect, androstanol compared with N-acetylcysteine (CAR [7]): very similar

SMILES: Clc1ccccc1C(c1ccccc1)(c1ccccc1)n1ccnc1 [clotrimazole]
activity on human CAR receptor (human CAR [8]): inverse agonist of human
